Columns and labels:
[1] = target: T1, Dual specificity protein kinase TTK (Homo sapiens, UniProt P33981); experiment: Inhibition of Mps1 (unknown origin) pretreated for 10 mins followed by substrate addition and measured after 60 mins in presence of ATP by ADP-glo kinase assay
T1 sequence (P33981 whole entry): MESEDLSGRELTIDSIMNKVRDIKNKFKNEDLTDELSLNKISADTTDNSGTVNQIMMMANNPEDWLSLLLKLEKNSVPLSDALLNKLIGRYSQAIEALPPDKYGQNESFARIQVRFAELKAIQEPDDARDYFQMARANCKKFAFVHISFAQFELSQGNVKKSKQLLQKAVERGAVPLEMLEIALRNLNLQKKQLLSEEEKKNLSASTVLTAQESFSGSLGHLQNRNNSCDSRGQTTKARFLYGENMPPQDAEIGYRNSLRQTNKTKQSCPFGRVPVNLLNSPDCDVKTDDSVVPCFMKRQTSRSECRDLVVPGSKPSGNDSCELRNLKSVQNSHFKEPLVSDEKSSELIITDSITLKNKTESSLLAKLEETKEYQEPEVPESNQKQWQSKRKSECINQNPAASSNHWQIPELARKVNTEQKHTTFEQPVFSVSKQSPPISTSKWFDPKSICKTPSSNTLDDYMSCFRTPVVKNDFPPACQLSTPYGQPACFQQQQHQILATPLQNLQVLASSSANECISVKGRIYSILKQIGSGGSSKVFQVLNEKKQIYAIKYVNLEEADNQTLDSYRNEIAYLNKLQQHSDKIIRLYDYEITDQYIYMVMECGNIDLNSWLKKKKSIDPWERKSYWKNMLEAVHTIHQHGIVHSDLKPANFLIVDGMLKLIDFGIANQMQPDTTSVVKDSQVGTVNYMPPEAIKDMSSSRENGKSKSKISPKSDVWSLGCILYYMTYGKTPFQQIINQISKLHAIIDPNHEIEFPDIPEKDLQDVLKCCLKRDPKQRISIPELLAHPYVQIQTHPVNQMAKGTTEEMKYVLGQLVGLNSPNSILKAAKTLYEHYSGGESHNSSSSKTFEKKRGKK

MDA-MB-468 [2] = experiment: Antiproliferative activity against human MDA-MB-468 cells assessed inhibition of cell growth at 2 uM incubated for 72 hrs by CCK-8 assay relative to control; assay type: functional
[3] = target: T2, Dual specificity protein kinase TTK (Homo sapiens) (UniProt P33981); experiment: Inhibition of Mps1 (unknown origin) at 1000 nM pretreated for 10 mins followed by substrate addition and measured after 60 mins in presence of ATP by ADP-glo kinase assay relative to control; settings: time 70.0 min
T2 sequence (whole entry): T1 sequence (P33981 whole entry)

MDA-MB-468 [4] = experiment: cells; assay type: functional, cell-based; settings: Homo sapiens, MDA-MB-468, 72 h
Description: Antiproliferative activity against human MDA-MB-468 cells assessed inhibition of cell growth incubated for 72 hrs by CCK-8 assay

MDA-MB-231 = experiment: Antiproliferative activity against human MDA-MB-231 cells assessed inhibition of cell growth incubated for 72 hrs by CCK-8 assay; assay type: functional
MCF7 = experiment: Antiproliferative activity against human MCF7 cells assessed inhibition of cell growth incubated for 72 hrs by CCK-8 assay relative to control; assay type: functional
MV4-11 = experiment: Antiproliferative activity against human MV4-11 cells assessed inhibition of cell growth incubated for 72 hrs by CCK-8 assay relative to control; assay type: functional
[5] = Antiproliferative activity against human RBE cells assessed inhibition of cell growth incubated for 72 hrs by CCK-8 assay relative to control; assay type: functional
[6] = target: T1, Dual specificity protein kinase TTK; experiment: Inhibition of MPS1 (unknown origin)
[7] = Metabolic stability in human liver microsome assessed as half life preincubated for 10 mins followed by NADPH addition and measured upto 60 mins by LC-MS/MS analysis; assay type: ADME; settings: liver microsomes, time < 70 min
[8] = Metabolic stability in human microsome assessed as intrinsic clearance preincubated for 10 mins followed by NADPH addition and measured upto 60 mins by LC-MS/MS analysis; assay type: ADME; settings: microsomes, time < 70 min
[9] = Metabolic stability in human liver microsome assessed as intrinsic clearance preincubated for 10 mins followed by NADPH addition and measured upto 60 mins by LC-MS/MS analysis; assay type: ADME; settings: liver microsomes, time < 70 min, read-out: CLH
MDA-MB-468 [10] = experiment: Antitumor activity against human MDA-MB-468 cells xenografted in BALB/c nude mouse assessed as tumor growth inhibition at 30 mg/kg, iv administered once daily for 21 days; assay type: functional; settings: MDA-MB-468, 504 h, time 21 day, read-out: TGI
HCT-116 = experiment: Antitumor activity against human HCT-116 cells xenografted in mouse assessed as tumor growth inhibition at 6.5 mg/kg, po; assay type: functional; settings: read-out: TGI

| IC50 [1] | inhibition [3] | SMILES | inhibition at 2 µM (MDA-MB-468 [2]) | inhibition (INH) (MDA-MB-231) | inhibition (INH) (MCF7) | inhibition (INH) (MV4-11) | inhibition (INH) [5] | other results |
| --- | --- | --- | --- | --- | --- | --- | --- | --- |
| > 1000 nM |  | C=CC(=O)Nc1cc(N2CCN(C(C)=O)CC2)ccc1Nc1nc(-c2cc3n(c2)CCN(c2c(CC)cccc2CC)C3=O)c2cn[nH]c2n1 | 0.38% |  |  |  |  |  |
| > 1000 nM |  | C#CC(=O)Nc1cc(N2CCN(C(C)=O)CC2)ccc1Nc1nc(-n2ccc(C(=O)Nc3c(CC)cccc3CC)c2)c2cn[nH]c2n1 | 7.17% |  |  |  |  |  |
| 4.84 nM | 84.7% | COc1cc(N2CCC(N(C)C)CC2)ccc1Nc1nc(OC2CCCC2)c2c(-c3ccc(OC)c(OC)c3)n[nH]c2n1 | 94.3% | 72.16% | 25.87% | 21.89% | 36.32% | IC50 (MDA-MB-468 [4]): 1270 nM |
| > 1000 nM |  | C=CC(=O)Nc1cc(N2CCN(C(C)=O)CC2)ccc1Nc1nc(-n2ccc(C(=O)Nc3c(CC)cccc3CC)c2)c2cn[nH]c2n1 | -2.46% |  |  |  |  |  |
|  | 15.2% | COc1ccc(-c2n[nH]c3nc(Nc4ccccc4)nc(OC4CCCC4)c23)cc1OC | 19.9% | 26.44% | 4.54% | -13.46% | 4.28% |  |
|  |  | COc1cc(OC2CCN(C)CC2)ccc1Nc1ncc2c(n1)n(C1CCCC1)c(=O)n2C |  | 57.08% |  |  |  | IC50 (MDA-MB-468 [4]): 2100 nM |
|  | 63.9% | COc1cc(N2CCC(N(C)C)CC2)ccc1Nc1nc(OC2CC2)c2c(-c3ccc(OC)c(OC)c3)n[nH]c2n1 | 30% | 35.24% | 20.26% | -17.18% | 14.2% |  |
| > 1000 nM |  | C=CC(=O)Nc1cc(NC(=O)CC)ccc1Nc1nc(-n2ccc(C(=O)Nc3c(CC)cccc3CC)c2)c2cn[nH]c2n1 | 5.51% |  |  |  |  |  |
| 4.03 nM |  | CCc1cccc(CC)c1NC(=O)c1ccn(-c2nc(Nc3ccc(N4CCN(C(C)=O)CC4)cc3OC)nc3[nH]ncc23)c1 |  |  |  |  |  | IC50 (MDA-MB-468 [4]): 371 nM |
| > 1000 nM |  | CCC(=O)Nc1cc(N2CCN(C(C)=O)CC2)ccc1Nc1nc(-n2ccc(C(=O)Nc3c(CC)cccc3CC)c2)c2cn[nH]c2n1 | -3.96% |  |  |  |  |  |
|  | 49.1% | COc1cc(N2CCCCC2)ccc1Nc1nc(OC2CCCC2)c2c(-c3ccc(OC)c(OC)c3)n[nH]c2n1 | -3.15% | 25.74% | 16.66% | -21.2% | 16.61% |  |
| 8.52 nM |  | COc1cc(N2CCN(C(C)=O)CC2)ccc1Nc1nc(-n2ccc(C(=O)Nc3c(C)cccc3C)c2)c2cn[nH]c2n1 | 34.8% |  |  |  |  |  |
|  |  | COCCCNC(=O)c1cc(-c2ccc(OC)c(OC)c2)nc2[nH]nc(-c3ccc(OC)cc3)c12 |  |  |  |  |  | IC50 [6]: 391 nM |
| > 1000 nM |  | C=C(F)C(=O)Nc1cc(N2CCN(C(C)=O)CC2)ccc1Nc1nc(-n2ccc(C(=O)Nc3c(CC)cccc3CC)c2)c2cn[nH]c2n1 | -1.41% |  |  |  |  |  |
| > 1000 nM |  | CCc1cccc(CC)c1NC(=O)c1ccn(-c2nc(Nc3ccc(N4CCN(C(C)=O)CC4)cc3NC(C)=O)nc3[nH]ncc23)c1 | -2.92% |  |  |  |  |  |
|  | 70.7% | COc1cc(N2CCC(N(C)C)CC2)ccc1Nc1nc(OC2CCCCC2)c2c(-c3ccc(OC)c(OC)c3)n[nH]c2n1 | 68.5% | 66.51% | 25.38% | 20.47% | 28.45% |  |
|  | 51.2% | COc1cc(N2CCN(C(C)=O)CC2)ccc1Nc1nc(OC2CCCC2)c2c(-c3ccc(OC)c(OC)c3)n[nH]c2n1 | 81.5% | 26.44% | 17.16% | 8.63% | 39.75% | IC50 (MDA-MB-468 [4]): 1000 nM |
|  |  | O=C(O)Cc1ccccc1Nc1c(Cl)cccc1Cl [DICLOFENAC] |  |  |  |  |  | half-life [7]: 11 min; microsomal CLint [8]: 126 µL/min/mg; CLint scaled [9]: 113 mL/min/kg |
| > 1000 nM |  | CCc1cccc(CC)c1NC(=O)c1ccn(-c2nc(Nc3ccc(N4CCOCC4)cc3N3CCN(C)CC3)nc3[nH]ncc23)c1 | -1.94% |  |  |  |  |  |
| > 1000 nM |  | CC#CC(=O)Nc1cc(N2CCOCC2)ccc1Nc1nc(-n2ccc(C(=O)Nc3c(CC)cccc3CC)c2)c2cn[nH]c2n1 | -0.47% |  |  |  |  |  |
|  | 63.9% | COc1cc(N2CCN(C)CC2)ccc1Nc1nc(OC2CCCC2)c2c(-c3ccc(OC)c(OC)c3)n[nH]c2n1 | 40.7% | 24.33% | 17.07% | -3.55% | 4.83% |  |
|  | 35.7% | COc1ccc(-c2n[nH]c3nc(Nc4ccc(N5CCC(N(C)C)CC5)cc4OC)nc(OC4CCCC4)c23)cc1 | 5.57% | 10.57% | 10.76% | -10.86% | 7.85% |  |
|  |  | COc1ccc(Oc2cc(NCCC(F)(F)F)c3ncc(-c4ccc(C(=O)NC5CC5)c(C)c4)n3n2)c(F)c1F [BAY-1217389] |  | 61.14% |  |  |  | inhibition in vivo at 30 mg/kg (MDA-MB-468 [10]): 67% |
|  |  | Cc1cc(-c2cnn3c(NC[C@H]4C[C@@](C)(O)C4)cc(Oc4cccnc4)nc23)ccc1C(=O)NC1CC1 [LUVIXASERTIB] |  |  |  |  |  | inhibition in vivo at 6.5 mg/kg (HCT-116): 68% |
| > 1000 nM |  | C=CC(=O)Nc1cc(N2CCOCC2)ccc1Nc1nc(-c2cc3n(c2)CCN(c2c(CC)cccc2CC)C3=O)c2cn[nH]c2n1 |  |  |  |  |  | IC50 (MDA-MB-468 [4]): 2620 nM |
| 3.37 nM |  | CCc1cccc(CC)c1NC(=O)c1ccn(-c2nc(Nc3ccc(N4CCN(C)CC4)cc3OC)nc3[nH]ncc23)c1 | 64.3% |  |  |  |  |  |
|  | 44.5% | COc1cccc(-c2n[nH]c3nc(Nc4ccc(N5CCC(N(C)C)CC5)cc4OC)nc(OC4CCCC4)c23)c1 | 2.34% | 22.71% | 22.33% | -1.1% | 4.83% |  |
|  | 59.9% | COc1cc(N2CCOCC2)ccc1Nc1nc(OC2CCCC2)c2c(-c3ccc(OC)c(OC)c3)n[nH]c2n1 | 69.7% | 21.19% | 10.48% | -22.73% | 11.97% | IC50 (MDA-MB-468 [4]): 2090 nM |
| 3.81 nM |  | COc1cc(N2CCN(C)CC2)ccc1Nc1nc(-n2ccc(C(=O)Nc3c(C)cccc3C)c2)c2cn[nH]c2n1 |  |  |  |  |  | IC50 (MDA-MB-468 [4]): 857 nM |
| 6.14 nM |  | CCc1cccc(CC)c1N1CCn2cc(-c3nc(Nc4ccc(N5CCOCC5)cc4OC)nc4[nH]ncc34)cc2C1=O |  |  |  |  |  | IC50 (MDA-MB-468 [4]): 663 nM |
